In patent publication US4232035A, “Carbamate pesticidal compounds compositions and methods of use” (priority 1975, dated 1980):

Tested on: bean aphid (Aphis fabae Scop.)
Assay: Bean Aphid Foliage Spray Test
Type: in vivo
Set-up: key: A: excellent control; B: partial control; C: no control
Details: 500 parts per million foliage spray; 24 hour holding period
Experimental: (§1) Suspensions of the test compounds were prepared by dissolving one gram of compound in 50 milliliters of acetone in which had been dissolved 0.1 gram (10 percent of the weight of compound) of an alkylphenoxy polyethoxyethanol surfactant, as an emulsifying or dispersing agent. The resulting solution was mixed into 150 milliliters of water to give roughly 200 milliliters of a suspension containing the compound in finely divided form. The thus-prepared stock suspension contained 0.5 percent by weight of compound. The test concentrations in parts per million by weight employed in the tests described hereinbelow were obtained by appropriate dilutions of the stock suspension with water. The test procedures were as follows:
Adults and nymphal stages of the bean aphid (Aphis fabae Scop.) reared on potted dwarf nasturtium plants at 65°-70° F. and 50-70 percent relative humidity, constituted the test insects. For testing purposes, the number of aphids per pot was standardized to 100-150 by trimming plants containing excess aphids.
The test compounds were formulated by diluting the stock suspension with water to give a suspension containing 500 parts of test compound per million parts of final formulation.
The potted plants (one pot per compound tested) infested with 100-150 aphids, were placed on a revolving turntable and sprayed with 100-110 milliliters of test compound formulation by use of a DeVilbiss spray gun set at 40 psig. air pressure. This application, which lasted 25 seconds, was sufficient to wet the plants to run-off. As a control, 100-110 milliliters of a water-acetone-emulsifier solution containing no test compound were also sprayed on infested plants. After spraying, the pots were placed on their sides on a sheet of white standard mimeograph paper which had been previously ruled to facilitate counting. Temperature and humidity in the test room during the 24 hour holding period were 65°-70° F. and 50-70 percent, respectively. Aphids which fell onto the paper and were unable to remain standing after being uprighted were considered dead. Aphids remaining on the plants were observed closely for movement and those which were unable to move the length of the body upon stimulation by prodding were considered dead. Percent mortality was recorded for various concentration levels.

| Compound | Aphid, pesticidal activity rating |
| --- | --- |
| CC(C)SSN(C)C(=O)ON=C1SC(C)(C)C(=O)N1C | A |
| CN(SSC1CCCCC1)C(=O)ON=C1SC(C)(C)C(=O)N1C | A |
| CN(SSC(C)(C)C)C(=O)ON=C1CSCCS1 | A |
| CC1OCSC1=NOC(=O)N(C)SSc1ccc(Cl)cc1 (stereo not drawn) | A |
| CC1OCSC1=NOC(=O)N(C)SSC(C)(C)C (stereo not drawn) | A |
| CC1OCSC1=NOC(=O)N(C)SSc1ccccc1 (stereo not drawn) | A |
| CN(SSc1ccc(Cl)cc1)C(=O)ON=C1SC(C)(C)C(=O)N1C | A |

Tested on: two-spotted mite (Tetranychus urticae Koch)
Assay: Mite Foliage Spray Test
Type: in vivo
Set-up: key: A: excellent control; B: partial control; C: no control
Details: 500 parts per million foliage spray; six days
Experimental: as §1
Adults and nymphal stages of the two-spotted mite (Tetranychus urticae Koch), reared on Tendergreen bean plants at 80±5 percent relative humidity, were the test organisms. Infested leaves from a stock culture were placed on the primary leaves of two bean plants six to eight inches in height, growing in a two-and-a-half inch clay pot. 150-200 Mites, a sufficient number for testing, transferred from the excised leaves to the fresh plants in a period of twenty four hours. Following the twenty four hour transfer period, the excised leaves were removed from the infested plants. The test compounds were formulated by diluting the stock suspension with water to give a suspension containing 500 parts of test compound per million parts of final formulation. The potted plants (one pot per compound) were placed on a revolving turntable and sprayed with 100-110 milliliters of test compound formulation by use of a DeVilbiss spray gun set at 40 psig. air pressure. This application, which lasted 25 seconds, was sufficient to wet the plants to run-off. As a control, 100-110 milliliters of a water solution containing acetone and emulsifier in the same concentrations as the test compound formulation, but containing no test compound, were also sprayed on infested plants. The sprayed plants were held at 80±5 percent relative humidity for six days, after which a mortality count of motile forms was made. Microscopic examination for motile forms was made on the leaves of the test plants. Any individual which was capable of locomotion upon prodding was considered living.

| Compound | Mite, pesticidal activity rating |
| --- | --- |
| CC(C)SSN(C)C(=O)ON=C1SC(C)(C)C(=O)N1C | C |
| CN(SSC1CCCCC1)C(=O)ON=C1SC(C)(C)C(=O)N1C | C |
| CN(SSC(C)(C)C)C(=O)ON=C1CSCCS1 | A |
| CC1OCSC1=NOC(=O)N(C)SSc1ccc(Cl)cc1 (stereo not drawn) | A |
| CC1OCSC1=NOC(=O)N(C)SSC(C)(C)C (stereo not drawn) | A |
| CC1OCSC1=NOC(=O)N(C)SSc1ccccc1 (stereo not drawn) | A |
| CN(SSc1ccc(Cl)cc1)C(=O)ON=C1SC(C)(C)C(=O)N1C | C |

Tested on: southern armyworm (Prodenia eridania, (Cram.))
Assay: Southern Armyworm Leaf Spray Test
Type: in vivo
Set-up: key: A: excellent control; B: partial control; C: no control
Details: 500 parts per million leaf spray; three days
Experimental: as §1
Larvae of the southern armyworm (Prodenia eridania, (Cram.)), reared on Tendergreen bean plants at a temperature of 80°±5° F. and a relative humidity of 50±5 percent, constituted the test insects.
The test compounds were formulated by diluting the stock suspension with water to give a suspension containing 500 parts of test compound per million parts of final formulation. Potted Tendergreen bean plants of standard height and age were placed on a revolving turntable and sprayed with 100-110 milliliters of test compound formulation by use of a DeVilbiss spray gun set at 10 psig air pressure. This application, which lasted 25 seconds, was sufficient to wet plants to run-off. As a control, 100-110 milliliters of a water-acetone-emulsifier solution containing no test compound were also sprayed on infested plants. When dry, the paired leaves were separated and each one was placed in a 9 centimeter Petri dish lined with moistened filter paper. Five randomly selected larvae were introduced into each dish and the dishes were closed. The closed dishes were labeled and held at 80°-85° F. for three days. Although the larvae could easily consume the whole leaf within twenty-four hours, no more food was added. Larvae which were unable to move the length of the body, even upon stimulation by prodding, were considered dead. Percent mortality was recorded for various concentration levels.

| Compound | S. Armyworm, pesticidal activity rating |
| --- | --- |
| CC(C)SSN(C)C(=O)ON=C1SC(C)(C)C(=O)N1C | A |
| CN(SSC1CCCCC1)C(=O)ON=C1SC(C)(C)C(=O)N1C | A |
| CN(SSC(C)(C)C)C(=O)ON=C1CSCCS1 | A |
| CC1OCSC1=NOC(=O)N(C)SSc1ccc(Cl)cc1 (stereo not drawn) | A |
| CC1OCSC1=NOC(=O)N(C)SSC(C)(C)C (stereo not drawn) | A |
| CC1OCSC1=NOC(=O)N(C)SSc1ccccc1 (stereo not drawn) | A |
| CN(SSc1ccc(Cl)cc1)C(=O)ON=C1SC(C)(C)C(=O)N1C | A |

Tested on: Mexican bean beetle (Epilachna varivestis, Muls.)
Assay: Mexican Bean Beetle Leaf Spray Test
Type: in vivo
Set-up: key: A: excellent control; B: partial control; C: no control
Details: 500 parts per million leaf spray; fourth instar larvae; three days
Experimental: as §1
Fourth instar larvae of the Mexican bean beetle (Epilachna varivestis, Muls.), reared on Tendergreen bean plants at a temperature of 80°±5° F. and 50±5 percent relative humidity, were the test insects.
The test compounds were formulated by diluting the stock suspension with water to give a suspension containing 500 parts of test compound per million parts of final formulation. Potted Tendergreen bean plants of standard height and age were placed on a revolving turntable and sprayed with 100-110 milliliters of test compound formulation by use of a DeVilbiss spray gun set at 10 psig air pressure. This application, which lasted 25 seconds, was sufficient to wet plants to run-off. As a control, 100-110 milliliters of a water-acetone-emulsifier solution containing no test compound were also sprayed on infested plants. When dry, the paired leaves were separated and each was placed in a 9 centimeter Petri dish lined with moistened filter paper. Five randomly selected larvae were introduced into each dish, and the dishes were closed. The closed dishes were labeled and held at a temperature of 80°±5° F. for three days. Although the larvae could easily consume the leaf within 24 to 48 hours, no more food was added. Larvae which were unable to move the length of the body, even upon stimulation, were considered dead.

| Compound | M. Bean Beetle, pesticidal activity rating |
| --- | --- |
| CC(C)SSN(C)C(=O)ON=C1SC(C)(C)C(=O)N1C | A |
| CN(SSC1CCCCC1)C(=O)ON=C1SC(C)(C)C(=O)N1C | A |
| CN(SSC(C)(C)C)C(=O)ON=C1CSCCS1 | A |
| CC1OCSC1=NOC(=O)N(C)SSc1ccc(Cl)cc1 (stereo not drawn) | A |
| CC1OCSC1=NOC(=O)N(C)SSC(C)(C)C (stereo not drawn) | A |
| CC1OCSC1=NOC(=O)N(C)SSc1ccccc1 (stereo not drawn) | A |
| CN(SSc1ccc(Cl)cc1)C(=O)ON=C1SC(C)(C)C(=O)N1C | A |

Tested on: house flies (Musca domestica, L.)
Assay: Fly Bait Test
Type: in vivo
Set-up: key: A: excellent control; B: partial control; C: no control
Details: 500 parts per million bait in sugar solution; twenty four hours
Experimental: as §1
Four to six day old adult house flies (Musca domestica, L.) reared according to the specifications of the Chemical Specialties Manufacturing Association (Blue Book, McNair-Dorland Co., N.Y. 1954; pages 243-244, 261) under controlled conditions of 80°±5° F. and 50±5 percent relative humidity, were the test insects. The flies were immobilized by anesthetizing with carbon dioxide and twenty five immobilized individuals, males and females, were transferred to a cage consisting of a standard food strainer about five inches in diameter which was inverted over a wrapping-paper-covered surface. The test compounds were formulated by diluting the stock suspension with a 10 percent (by weight) sugar solution to give a suspension containing 500 parts of test compound per million parts of final formulation, by weight. Ten milliliters of the test formulation were added to a souffle cup containing a one-inch square of an absorbent cotton pad. This bait cup was introduced and centered on the blotting paper under the food strainer prior to admitting the anesthetized flies. The caged flies were allowed to feed on the bait for twenty four hours, at a temperature of 80°±5° F. and the relative humidity of 50±5 percent.

| Compound | H. Fly, pesticidal activity rating |
| --- | --- |
| CC(C)SSN(C)C(=O)ON=C1SC(C)(C)C(=O)N1C | A |
| CN(SSC1CCCCC1)C(=O)ON=C1SC(C)(C)C(=O)N1C | C |
| CN(SSC(C)(C)C)C(=O)ON=C1CSCCS1 | A |
| CC1OCSC1=NOC(=O)N(C)SSc1ccc(Cl)cc1 (stereo not drawn) | A |
| CC1OCSC1=NOC(=O)N(C)SSC(C)(C)C (stereo not drawn) | A |
| CC1OCSC1=NOC(=O)N(C)SSc1ccccc1 (stereo not drawn) | A |
| CN(SSc1ccc(Cl)cc1)C(=O)ON=C1SC(C)(C)C(=O)N1C | B |

Tested on: root-knot nematode (Meloidogyne incognita var. acrita)
Assay: Nematode Test
Type: in vivo
Set-up: key: 1: severe galling; equal to untreated control; 2: moderate galling; 3: light galling; 4: very light galling; 5: no galling
Details: 10 ml of 500 parts per million formulation per jar of soil; cucumber indicator crop, approximately three weeks
Experimental: as §1
Infective migratory larvae of the root-knot nematode, (Meloidogyne incognita var. acrita) were reared in the greenhouse on roots of Rutgers variety tomato plant. Infected tomato plants were removed from the culture and the roots were chopped very finely. A small amount of inoculum from the roots was added to pint Mason jars containing approximately 180 cc of soil. The jars containing the inoculum and soil were capped and incubated for one week at room temperature. During this period eggs of the nematode hatched and the larvae forms migrated into the soil.
The test compounds were formulated by diluting the stock suspension with water to give a suspension containing 500 parts of test compound per million parts of final formulation. 10 milliliters of the test formulation was added to each of two jars for each dosage treated. As a control 10 milliliters of a water-acetone-emulsifier solution containing no test compound was also added to jars containing nematode larvae. The jars were capped and the contents thoroughly mixed on a kale mill for five minutes. The jars remained capped at room temperature for a period of 48 hours and the contents were then transferred to 3 inch pots. Subsequently, the pots were seeded to cucumber as an indicator crop and placed in the green house where they were cared for in the normal fashion for growing potted cucumber for approximately three weeks. These cucumber plants were then removed from the pots, the soil washed from the roots and the amount of galling visually rated.

| Compound | Nematodes, nematocidal toxicity rating (galling) |
| --- | --- |
| CC(C)SSN(C)C(=O)ON=C1SC(C)(C)C(=O)N1C | 1 |
| CN(SSC1CCCCC1)C(=O)ON=C1SC(C)(C)C(=O)N1C | 2 |
| CN(SSC(C)(C)C)C(=O)ON=C1CSCCS1 | 1 |
| CC1OCSC1=NOC(=O)N(C)SSc1ccc(Cl)cc1 (stereo not drawn) | 1 |
| CC1OCSC1=NOC(=O)N(C)SSC(C)(C)C (stereo not drawn) | 1 |
| CC1OCSC1=NOC(=O)N(C)SSc1ccccc1 (stereo not drawn) | 2 |
| CN(SSc1ccc(Cl)cc1)C(=O)ON=C1SC(C)(C)C(=O)N1C | 1 |
